Results from patent US20240299367A1, “METHODS OF TREATING ACUTE RESPIRATORY DISTRESS SYNDROME WITH ACTIVATORS OF TIE-2” (AERPIO PHARMACEUTICALS, INC., priority 2020, published 2024).
Read-outs that look alike come from different tables or passages of the source.

How the values were obtained:
HPTPβ = HPTPβ (Homo sapiens (Human), UniProt P23467); assay: HPTPβ inhibitory activity (IC50); assay type: biochemical
[1] = test system: polymicrobial septic shock; assay: Cecal ligation and puncture (CLP) model of sepsis, survival; assay type: in vivo, Sprague Dawley rats; details: rats, SC BID days 1-5, monitored 10 days, Cpd 1 10 mg/kg, IM 20 mg/kg
[2] = 0.9% saline, cited from earlier work
[3] = test system: SARS-COV, MERS-COV, and SARS-CoV-2; details: cell culture and animal models; cited from earlier work
[4] = Urine albumin/creatinine ratio (UACR) in Phase 2 and Phase 2b studies; assay type: in vivo, human; details: Phase 2, patients with evidence of diabetic nephropathy

HPTPβ, sequence (P23467 23-1997): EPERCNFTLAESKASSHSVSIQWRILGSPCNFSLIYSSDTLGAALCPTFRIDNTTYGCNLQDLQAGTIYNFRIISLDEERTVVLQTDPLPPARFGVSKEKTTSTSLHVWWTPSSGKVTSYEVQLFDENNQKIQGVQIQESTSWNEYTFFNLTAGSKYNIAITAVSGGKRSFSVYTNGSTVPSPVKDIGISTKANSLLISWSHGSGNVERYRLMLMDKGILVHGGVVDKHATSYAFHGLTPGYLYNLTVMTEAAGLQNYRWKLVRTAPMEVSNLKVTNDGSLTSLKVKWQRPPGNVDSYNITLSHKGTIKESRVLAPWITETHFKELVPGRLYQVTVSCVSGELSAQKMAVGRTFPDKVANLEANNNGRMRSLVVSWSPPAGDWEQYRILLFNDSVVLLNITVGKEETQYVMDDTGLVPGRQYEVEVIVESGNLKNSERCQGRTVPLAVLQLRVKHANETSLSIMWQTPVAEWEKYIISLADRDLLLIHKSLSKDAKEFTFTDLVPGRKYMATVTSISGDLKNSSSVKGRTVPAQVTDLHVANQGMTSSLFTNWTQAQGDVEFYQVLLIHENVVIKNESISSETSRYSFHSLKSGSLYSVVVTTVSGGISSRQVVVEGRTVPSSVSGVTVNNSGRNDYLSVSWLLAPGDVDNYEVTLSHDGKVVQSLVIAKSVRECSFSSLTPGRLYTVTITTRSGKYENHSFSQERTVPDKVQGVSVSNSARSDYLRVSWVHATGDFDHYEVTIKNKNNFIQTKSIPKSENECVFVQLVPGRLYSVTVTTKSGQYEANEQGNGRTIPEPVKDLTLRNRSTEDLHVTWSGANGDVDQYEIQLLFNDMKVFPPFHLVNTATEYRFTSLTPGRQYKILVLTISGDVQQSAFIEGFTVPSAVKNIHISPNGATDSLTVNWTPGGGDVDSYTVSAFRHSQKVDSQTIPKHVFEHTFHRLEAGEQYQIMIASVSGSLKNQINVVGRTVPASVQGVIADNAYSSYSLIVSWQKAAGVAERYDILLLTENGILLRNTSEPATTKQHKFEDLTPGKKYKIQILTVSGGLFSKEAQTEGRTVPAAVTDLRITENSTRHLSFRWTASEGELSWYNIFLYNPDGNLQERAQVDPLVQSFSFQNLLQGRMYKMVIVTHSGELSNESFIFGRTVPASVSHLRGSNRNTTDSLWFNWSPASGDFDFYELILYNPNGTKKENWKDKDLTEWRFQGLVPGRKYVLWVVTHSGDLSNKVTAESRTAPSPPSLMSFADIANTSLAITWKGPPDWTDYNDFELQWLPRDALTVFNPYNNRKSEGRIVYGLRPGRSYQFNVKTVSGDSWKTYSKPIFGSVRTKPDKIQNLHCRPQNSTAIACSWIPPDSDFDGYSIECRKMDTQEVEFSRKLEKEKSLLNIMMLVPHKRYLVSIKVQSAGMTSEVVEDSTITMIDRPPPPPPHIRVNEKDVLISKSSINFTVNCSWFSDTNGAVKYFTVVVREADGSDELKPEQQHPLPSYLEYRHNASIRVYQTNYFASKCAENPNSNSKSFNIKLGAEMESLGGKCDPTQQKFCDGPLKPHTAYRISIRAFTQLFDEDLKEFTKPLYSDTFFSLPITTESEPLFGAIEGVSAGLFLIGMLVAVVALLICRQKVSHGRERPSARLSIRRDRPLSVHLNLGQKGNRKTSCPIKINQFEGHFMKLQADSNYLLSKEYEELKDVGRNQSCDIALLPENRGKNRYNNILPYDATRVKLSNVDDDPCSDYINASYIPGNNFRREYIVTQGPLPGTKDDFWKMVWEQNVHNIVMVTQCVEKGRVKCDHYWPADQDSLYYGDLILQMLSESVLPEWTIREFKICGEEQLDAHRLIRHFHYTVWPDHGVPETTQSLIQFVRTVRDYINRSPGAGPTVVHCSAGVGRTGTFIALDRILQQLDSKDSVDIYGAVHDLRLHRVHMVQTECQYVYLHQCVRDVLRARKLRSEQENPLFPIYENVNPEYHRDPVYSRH

Molecule: Cc1nc([C@H](Cc2ccc(NS(=O)(=O)O)cc2)NC(=O)OC(C)(C)C)cs1 [AA64]
- IC50 (HPTPβ): 33 nM

Molecule: COC(=O)Cc1csc([C@H](Cc2ccc(NS(=O)(=O)O)cc2)NC(=O)OC(C)(C)C)n1 [AA70, (S)-4-(2-(tert-Butoxycarbonyl)-2-(4-(2-(2-methoxy-2-oxoyethylamino)-2-oxoethyl)thiazole-2-yl)ethyl)phenylsulfamic acid]
- IC50 (HPTPβ): 132 nM

Molecule: C[C@@H](O)[C@H]1C(=O)N2C(C(=O)O)=C(SCCN=CN)C[C@H]12 [IM, imipenem]
- survival [1]: 81%

Molecule: CCC(CC)COC(=O)[C@H](C)N[P@](=O)(OC[C@H]1O[C@@](C#N)(c2ccc3c(N)ncnn23)[C@H](O)[C@@H]1O)Oc1ccccc1 [Remdesivir]
- storage time of diluted solution ([2]; refrigerated (2° C. to 8° C.)): 24 h
- storage time of diluted solution ([2]; room temperature (20° C. to 25° C.)): up to 4 hours
- antiviral activity [3]: exhibits activity in cell culture and animal models

B1: ranibizumab (antibody, chains of the INN, looked up, V domains shown)
VH: EVQLVESGGGLVQPGGSLRLSCAASGYDFTHYGMNWVRQAPGKGLEWVGWINTYTGEPTYAADFKRRFTFSLDTSKSTAYLQMNSLRAEDTAVYYCAKYPYYYGTSHWYFDVWGQGTLVTVSS
VL: DIQLTQSPSSLSASVGDRVTITCSASQDISNYLNWYQQKPGKAPKVLIYFTSSLHSGVPSRFSGSGSGTDFTLTISSLQPEDFATYYCQQYSTVPWTFGQGTKVEIK
modifications: Fab
notes: anti-VEGF agent, standard-of-care intravitreal injection
- UACR change [4]: increase
